Values quoted from earlier work as cited in patent publication US8802142B2, “Pharmaceutical compositions comprising levetiracetam and process for their preparation” (UCB Pharma, S.A., priority 2005, dated 2014).

Settings: A. J. Gower et al., Eur. J. Pharmacol., 222, 1992, 193-203

Compound: CC[C@@H](C(N)=O)N1CCCC1=O [Levetiracetam, (S)-(−)-α-ethyl-2-oxo-1-pyrrolidine acetamide]
- activity in the treatment of epilepsy: effective

Compound: (R)-(−)-α-ethyl-2-oxo-1-pyrrolidine acetamide
- activity in the treatment of epilepsy: completely lacks activity
